The values that follow come from patent US12391686B2, “Compounds and uses thereof” (Foghorn Therapeutics Inc., priority 2019, dated 2025).

Where two headings read alike, the source gives them in different places.

In the experiment the target is T1, Nanoluciferase-BRD9 fusion protein (3×FLAG-NLuc-BRD9) in SYO-1 cells (Homo sapiens, UniProt Q9H8M2).
T1 construct: expressed in transfected cells; host or cells: SYO-1
T1 sequence (Q9H8M2 1-597): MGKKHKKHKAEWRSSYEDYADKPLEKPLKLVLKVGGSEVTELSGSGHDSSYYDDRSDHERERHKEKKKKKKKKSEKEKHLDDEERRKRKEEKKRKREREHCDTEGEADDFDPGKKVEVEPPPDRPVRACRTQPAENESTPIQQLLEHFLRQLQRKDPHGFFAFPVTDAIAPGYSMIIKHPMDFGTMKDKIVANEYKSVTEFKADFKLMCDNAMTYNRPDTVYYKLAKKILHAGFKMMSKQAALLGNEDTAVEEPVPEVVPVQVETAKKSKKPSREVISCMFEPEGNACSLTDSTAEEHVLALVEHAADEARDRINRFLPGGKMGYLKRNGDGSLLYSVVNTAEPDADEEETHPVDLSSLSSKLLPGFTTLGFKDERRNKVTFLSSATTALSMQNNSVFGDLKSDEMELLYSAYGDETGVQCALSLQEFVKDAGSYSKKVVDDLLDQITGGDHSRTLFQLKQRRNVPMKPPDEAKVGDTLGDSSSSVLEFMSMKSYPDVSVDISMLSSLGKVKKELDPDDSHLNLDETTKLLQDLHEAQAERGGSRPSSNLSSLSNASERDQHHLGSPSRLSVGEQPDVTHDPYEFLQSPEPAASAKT
In words: SYO1 BRD9 NanoLuc Degradation Assay. To be noted: SYO-1 cells expressing 3×FLAG-NLuc-BRD9, 6 hours incubation, 1 μM top dose, read-out: SYO1 BRD9-NanoLuc degradation IC50. Format: cell-based. On the procedure: Procedure: A stable SYO-1 cell line expressing 3×FLAG-NLuc-BRD9 was generated. On day 0 cells were seeded in 30 μL media into each well of 384-well cell culture plates. The seeding density was 8000 cells/well. On day 1, cells were treated with 30 nL DMSO or 30 nL of 3-fold serially DMSO-diluted compounds (10 points in duplicates with 1 μM as final top dose). Subsequently plates were incubated for 6 hours in a standard tissue culture incubator and equilibrated at room temperature for 15 minutes. Nanoluciferase activity was measured by adding 15 μL of freshly prepared Nano-Glo Luciferase Assay Reagent (Promega N1130), shaking the plates for 10 minutes and reading the bioluminescence using an EnVision reader.
Results: The Inhibition % was calculated using the following formula: % Inhibition=100×(LumHC−Lumsample)/(LumHC−LumLC). DMSO treated cells are employed as High Control (HC) and 1 μM of a known BRD9 degrader standard treated cells are employed as Low Control (LC).

With `COc1cc(-c2cn(C)c(=O)c3ccc(N4CCC4)cc23)cc(OC)c1CN1CCC(C2CCN(c3ccc4c(c3)CN(C3CCC(=O)NC3=O)C4=O)CC2)CC1` (centres unmarked) [Compound D181], the DC50 (Table 6B) was no less than 1000 nM.
As to `COc1cc2c(-c3cc(OC)c(CN4CCN(CCC5CCN(c6ccc7c(c6)C(=O)N(C6CCC(=O)NC6=O)C7)CC5)CC45CCC5)c(OC)c3)cn(C)c(=O)c2cn1` (centres unmarked) [Compound D258], for the setting “Table 6C”, the DC50 was less than 10 nM.
With `COc1cc(-c2cn(C)c(=O)c3cnc(N(C)C)cc23)cc(OC)c1CN1CCC(C(=O)N2CCC3(CC2)CC(Oc2ccc4c(c2)C(=O)N(C2CCC(=O)NC2=O)C4=O)C3)CC1` (centres unmarked) [Compound D55], the DC50 (Table 6B) was less than 10 nM.
`COc1cc(-c2cn(C)c(=O)c3cnc(N(C)C)cc23)cc(OC)c1CN1CCC(CN2CCC3(CC2)CC(Oc2ccc4c(c2)C(=O)N(C2CCC(=O)NC2=O)C4=O)C3)C(OC)C1` (centres unmarked) [Compound D130]: the DC50 (Table 6B) is less than 10 nM.
With `COc1cc(-c2cn(C)c(=O)c3cnc(N(C)C)cc23)cc(OC)c1CN1CC2(CC(N3CCN(C4CCC(=O)NC4=O)C(=O)C3)C2)C1` (centres unmarked) [Compound D249], the DC50 (Table 6C) was 100 to 1000 nM.
`C/C=C/Cn1cc(-c2cc(OC)c(CN3CCN(CCC4CCN(c5ccc6c(c5)C(=O)N(C5CCC(=O)NC5=O)C6=O)CC4)CC3)c(OC)c2)c2cc(N(C)C)ncc2c1=O` (centres unmarked) [Compound D151]: the DC50 (Table 6B) was less than 10 nM.
The same measure, in the same setting: in the case of `COc1cc(-c2cn(C)c(=O)c3cnc(N(C)C)cc23)cc(OC)c1CN1CCC(C(C)(C)N2CCC3(CC2)CC(Oc2ccc4c(c2)C(=O)N(C2CCC(=O)NC2=O)C4=O)C3)CC1` (centres unmarked) [Compound D108] it was less than 10 nM; in that of `COc1cc(-c2cn(C)c(=O)c3cnc(N4CCC4)cc23)cc(OC)c1CN1CC(N2CCC(c3ccc4c(c3)CN(C3CCC(=O)NC3=O)C4=O)CC2)C1` (centres unmarked) [Compound D177], less than 10 nM.
Take `COc1cc(-c2cn(C)c(=O)c3cnc(N(C)C)cc23)cc(OC)c1CN1CCC(C[N+]2(C)CCC3(CC2)CC(Oc2ccc4c(c2)C(=O)N(C2CCC(=O)NC2=O)C4=O)C3)CC1` (centres unmarked) [Compound D84]: for the setting “Table 6B”, the DC50 is 10 to 100 nM.
For `COc1cc(-c2cn(C)c(=O)c3cnc(N4CC[C@H]4C)cc23)cc(OC)c1CN1CC(CN2CCC3(CC2)CN(c2ccc4c(c2)C(=O)N(C2CCC(=O)NC2=O)C4)C3)C1` (some centres unmarked) [Compound D212], the DC50 (Table 6C) was less than 10 nM.
On the same count and under the same terms, the result for `COc1cc(-c2cn(C)c(=O)c3cnc(N(C)C)cc23)cc(OC)c1CN1CCC(C#Cc2ccc3c(c2)C(=O)N(C2CCC(=O)NC2=O)C3=O)CC1` (centres unmarked) [Compound D273] reads less than 10 nM.
Still for that read-out and setting: the result for `COc1cc(-c2cn(C)c(=O)c3cnc(N4CC[C@H]4C)cc23)cc(OC)c1CN1CCC(CN2CCC3(CC2)CN(c2ccc4c(c2)C(=O)N(C2CCC(=O)NC2=O)C4)C3)CC1` (some centres unmarked) [Compound D208] reads less than 10 nM.
For `COc1cc(-c2cn(C)c(=O)c3cnc(N(C)C)cc23)cc(OC)c1CN1CCN(c2ccc3c(c2)C(=O)N(C2CCC(=O)NC2=O)C3=O)CC1` (centres unmarked) [Compound D70], the DC50 (Table 6B) is less than 10 nM.
For `COc1cc(-c2cn(C)c(=O)c3cnc(N4CC(F)(F)C4)cc23)cc(OC)c1CN1CCC(CN2CCC3(CC2)CN(c2ccc4c(c2)C(=O)N(C2CCC(=O)NC2=O)C4)C3)CC1` (centres unmarked) [Compound D291], the DC50 (Table 6C) is less than 10 nM.
Still for that read-out and setting: in the case of `COc1cc(-c2cn(C)c(=O)c3cnc(N(C)C)cc23)cc(OC)c1-c1ccc2c(c1)C(=O)N(C1CCC(=O)NC1=O)C2` (centres unmarked) [Compound D274] it was less than 10 nM.
As for `COc1cc(-c2cn(C)c(=O)c3cnc(N(C)C)cc23)c2c(c1)N(CCCCCCCCOc1ccc3c(c1)C(=O)N(C1CCC(=O)NC1=O)C3=O)CC2` (centres unmarked) [Compound D45], the DC50 (Table 6B) was in the range of 100 to 1000 nM.
For the compound `COc1cc(-c2cn(C)c(=O)c3cnc(N4CCC4)cc23)cc(OC)c1CN1CC(N(C)c2ccc3c(c2)C(=O)N(C2CCC(=O)NC2=O)C3)C1` (centres unmarked) [Compound D256], the DC50 (Table 6C) was less than 10 nM.
Still for that read-out and setting: the result for `COc1cc(-c2cn(C)c(=O)c3cnc(N4CCC4)cc23)cc(OC)c1CN1CCC(CN2CCC3(CC2)CC(Oc2ccc4c(c2)C(=O)N(C2CCC(=O)NC2=O)C4)C3)CC1` (centres unmarked) [Compound D187] reads less than 10 nM.
Regarding `COc1cc(-c2cn(C)c(=O)c3cnc(N4CCC4)cc23)cc(OC)c1CN1CC(CN2CCC3(CC2)CN(c2ccc4c(c2)CN(C2CCC(=O)NC2=O)C4=O)C3)C1` (centres unmarked) [Compound D153], the DC50 (Table 6B) was less than 10 nM.
On to `COc1cc(-c2cn(C)c(=O)c3cnc(C4CC4)cc23)cc(OC)c1CN1CC(C#Cc2ccc3c(c2)C(=O)N(C2CCC(=O)NC2=O)C3)C1` (centres unmarked) [Compound D263], for which, where the note is “Table 6C”, the DC50 is less than 10 nM.
For `COc1cc(-c2cn(C)c(=O)c3cnc(N(C)C)cc23)cc(OC)c1CN1CCN(CC2CCN(c3ccc4c(c3)C(=O)N(C3CCC(=O)NC3=O)C4=O)CC2)CC1` (centres unmarked) [Compound D155], the DC50 (Table 6B) was less than 10 nM.
For `CCOC1CC1c1cc2c(-c3cc(OC)c(CN4CCN(CCC5CCN(c6ccc7c(c6)C(=O)N(C6CCC(=O)NC6=O)C7=O)CC5)CC4)c(OC)c3)cn(C)c(=O)c2cn1` (centres unmarked) [Compound D204], the DC50 (Table 6C) was less than 10 nM.
The same measure, in the same setting: the result for `COc1cc(-c2cn(C)c(=O)c3cnc(C4(C)CC4)cc23)cc(OC)c1CN1CCC(CCN2CCN(c3ccc4c(c3)C(=O)N(C3CCC(=O)NC3=O)C4)CC2)CC1` (centres unmarked) [Compound D237] reads less than 10 nM.
For the compound `COc1cc(-c2cn(C)c(=O)c3cnc(N(C)C)cc23)cc(OC)c1CN1CCN(c2ccc3c(c2)C(=O)N(C2CCC(=O)NC2=O)C3)CC1` (centres unmarked) [Compound D113], where the note is “Table 6B”, the DC50 was less than 10 nM.
With `[2H]C([2H])([2H])n1cc(-c2cc(OC)c(CN3CCN(CCC4CCN(c5ccc6c(c5)C(=O)N(C5CCC(=O)NC5=O)C6)CC4)CC3)c(OC)c2)c2cc(OC)ncc2c1=O` (centres unmarked) [Compound D231], the DC50 (Table 6C) was less than 10 nM.
For `COc1cc(-c2cn(C)c(=O)c3cnc(N4CCC4)cc23)cc(OC)c1CN1CCC(c2ccc3c(c2)C(=O)N(C2CCC(=O)NC2=O)C3=O)CC1C(F)(F)F` (centres unmarked) [Compound D150], the DC50 (Table 6B) is less than 10 nM.
With `COc1cc(-c2cn(C)c(=O)c3cnc(N4CC(C)(OC)C4)cc23)cc(OC)c1CN1CC(CN2CCC3(CC2)CN(c2ccc4c(c2)C(=O)N(C2CCC(=O)NC2=O)C4)C3)C1` (centres unmarked) [Compound D210], the DC50 (Table 6C) is less than 10 nM.
Same read-out and setting: the result for `COc1cc(-c2cn(C)c(=O)c3cnc(C4COC4)cc23)cc(OC)c1CN1CCN(CCC2CCN(c3ccc4c(c3)C(=O)N(C3CCC(=O)NC3=O)C4=O)CC2)CC1` (centres unmarked) [Compound D308] reads less than 10 nM.
As for `COc1cc(-c2cn(C)c(=O)c3cnc(N(C)C)cc23)cc(OC)c1CN1CCC(CN2CCC3(CC2)CC(Oc2ccc4c(c2)C(=O)N(C2CCC(=O)NC2=O)C4=O)C3)CC1` (centres unmarked) [Compound D54], the DC50 (Table 6B) was less than 10 nM.
Still for that read-out and setting: the result for `COc1cc(-c2cn(C3CC3)c(=O)c3cnc(N4CCC4)cc23)cc(OC)c1CN1CCC(N2CCN(c3ccc4c(c3)CN(C3CCC(=O)NC3=O)C4=O)CC2)CC1` (centres unmarked) [Compound D122] reads less than 10 nM; that for `COc1cc(-c2cn(C)c(=O)c3cnc(N(C)C)cc23)cc(OC)c1CN1Cc2cc3c(cc2C1)C(=O)N(C1CCC(=O)NC1=O)C3=O` (centres unmarked) [Compound D86], less than 10 nM.
As to `COc1cc(-c2cn(C)c(=O)c3cnc(C4(C)CC4)cc23)cc(OC)c1CN1CC(Oc2ccc3c(c2)C(=O)N(C2CCC(=O)NC2=O)C3=O)C1` (centres unmarked) [Compound D229], for the setting “Table 6C”, the DC50 is less than 10 nM.
The same measure, in the same setting: the result for `COc1cc(-c2cn(C)c(=O)c3cnc(C4(C)CC4)cc23)cc(OC)c1CN1CCC(CCN2CCN(c3ccc4c(c3)C(=O)N(C3CCC(=O)NC3=O)C4=O)CC2)CC1` (centres unmarked) [Compound D216] reads less than 10 nM; that for `[2H]C([2H])([2H])n1cc(-c2cc(OC)c(CN3[C@H](C)CN(c4ccc5c(c4)C(=O)N(C4CCC(=O)NC4=O)C5)C[C@H]3C)c(OC)c2)c2cc(N(C)C)ncc2c1=O` (some centres unmarked) [Compound D276], less than 10 nM.
Consider `COc1cc(-c2cn(C)c(=O)c3cnc(N(C)C)cc23)cc(OC)c1CN(C)CC12CC(C(=O)NCCCCCOc3cccc4c3C(=O)N(C3CCC(=O)NC3=O)C4=O)(C1)C2` (centres unmarked) [Compound D36], for which the DC50 (Table 6B) was less than 10 nM.
For the compound `COc1cc(-c2cn(C)c(=O)c3cnc(N(C)C)cc23)cc(OC)c1CN1CCN(CCC2CCN(c3ccc4c(c3)CN(C3CCC(=O)NC3=O)C4=O)CC2)CC1` (centres unmarked) [Compound D121], the DC50 (Table 6B) was less than 10 nM.
Same read-out and setting: in the case of `CN(C)c1cc2c(-c3cc(Cl)c(CN4CCC(CN5CCC6(CC5)CC(Oc5ccc7c(c5)C(=O)N(C5CCC(=O)NC5=O)C7=O)C6)CC4)c(Cl)c3)cn(C)c(=O)c2cn1` (centres unmarked) [Compound D119] it was 10 to 100 nM; in that of `COc1cc(-c2cn(C)c(=O)c3cnc(N4CCC4)cc23)cc(OC)c1CN1CCC(CN2CCC3(CC2)CC(Oc2ccc4c(c2)C(=O)N(C2CCC(=O)NC2=O)C4=O)C3)CC1` (centres unmarked) [Compound D80], less than 10 nM.
